{
  "source": "patent US20020102309A1",
  "about": "“CONTROLLED RELEASE FORMULATION FOR ADMINISTRATION OF AN ANTI-INFLAMMATORY NAPHTHALENE DERIVATIVE” (priority 1999, published 2002)",
  "origin": "cited, not measured here",
  "tested_on": "patients with osteoarthritis or rheumatoid arthritis",
  "data": [
    {"compound": "COc1ccc2cc(CCC(C)=O)ccc2c1", "note": "[nabumetone, 4-(6′-methoxy-2′-naphthyl)butan-2-20 one]", "values": [
      {"measurement": "duodenal ulcer, gastric ulcer, and gastrointestinal bleeding, patients taking the drug", "setting": "literature (Pisko et al. 1987 and others)", "value": "less than 1 % of patients"},
      {"measurement": "ulcers occurred, treated patients", "setting": "patients with osteoarthritis or rheumatoid arthritis, Dahl 1993", "value": "0.03 % of patients"}
    ]}
  ]
}
